Measured values as given in paper PMC4987671, “Inhibition of cytochrome P450 3A by acetoxylated analogues of resveratrol in in vitro and in silico models” (Scientific Reports, 2016).
Where two headings read alike, the source gives them in different places.

Target: CYP3A4 (Homo sapiens, UniProt P08684)
Experiment: inhibition of testosterone metabolism in Caco-2/TC7 cells (HPLC)
Assay type: cell-based
[1] = read-out: % inhibition at 10 μM

Sequence of CYP3A4 (P08684 2-503): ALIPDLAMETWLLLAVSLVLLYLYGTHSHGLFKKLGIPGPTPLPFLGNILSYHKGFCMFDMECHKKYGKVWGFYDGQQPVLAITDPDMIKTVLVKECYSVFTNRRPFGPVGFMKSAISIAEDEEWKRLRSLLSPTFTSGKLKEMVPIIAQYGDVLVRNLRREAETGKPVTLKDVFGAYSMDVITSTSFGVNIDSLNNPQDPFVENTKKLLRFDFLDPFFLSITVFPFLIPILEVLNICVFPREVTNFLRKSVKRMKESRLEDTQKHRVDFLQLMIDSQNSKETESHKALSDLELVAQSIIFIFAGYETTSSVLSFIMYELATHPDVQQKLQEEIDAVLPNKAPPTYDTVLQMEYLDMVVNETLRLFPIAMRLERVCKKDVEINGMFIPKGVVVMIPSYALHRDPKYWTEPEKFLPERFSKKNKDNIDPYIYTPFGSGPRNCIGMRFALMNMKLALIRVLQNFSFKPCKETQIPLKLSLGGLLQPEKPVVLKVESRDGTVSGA

SMILES | inhibition at 10 µM [1] [%] | inhibition at 10 µM [%]
CC(=O)Oc1ccc(/C=C/c2cc(OC(C)=O)cc(OC(C)=O)c2)cc1 [TAR, 3,4′,5-acetoxystilbene] | 10 | 
CC(=O)N1CCN(c2ccc(OC[C@H]3COC(Cn4ccnc4)(c4ccc(Cl)cc4Cl)O3)cc2)CC1 (some centres unmarked) [ketoconazole, reference compound] |  | ~80
CC(=O)Oc1ccc(/C=C/c2cc(O)cc(O)c2)cc1 [MAR, 4′-acetoxy-3,5-hydroxy-stilbene] | 24 | 
Oc1ccc(/C=C/c2cc(O)cc(O)c2)cc1 [resveratrol, trans-3,4′,5-trihydroxystilbene] | > 80 | 
CC(=O)Oc1ccc(/C=C/c2cc(O)cc(OC(C)=O)c2)cc1 [DAR, 3,4′-acetoxy-5-hydroxy-stilbene] | 45 | 
